In PubChem BioAssay AID1745844 (Carcinogenic Potency Database (CPDB), 2022):
Active and inactive are the calls of the source. The rule behind the calls is not given here.

Tested on: rodent lifetime carcinogenesis bioassay, tumor incidence TD50
Assay: carcinogenic potency in animals, long-term in vivo studies, CPDB compilation (AID 1745844)

Structure (SMILES): Cc1noc(NS(=O)(=O)c2ccc(N)cc2)c1C
- TD50 (mouse, strain B6C3F1, females, in feed, site: any site (literature study), lesion: several types, types named in the paper, dosed 103 weeks, study length 104 weeks): 8180 mg/kg/day
- TD50 (mouse, strain B6C3F1, females, in feed, site: liver, lesion: hepatocellular adenoma + hepatocellular carcinoma + neoplastic nodule, dosed 103 weeks, study length 104 weeks): 2650 mg/kg/day
- TD50 (mouse, strain B6C3F1, females, in feed, site: liver, lesion: hepatocellular carcinoma, dosed 103 weeks, study length 104 weeks): 2650 mg/kg/day (inactive)
- TD50 (mouse, strain B6C3F1, females, in feed, site: lung, lesion: alveolar/bronchiolar adenoma + alveolar/bronchiolar carcinoma, dosed 103 weeks, study length 104 weeks): 11900 mg/kg/day
- carcinogen call (mouse, strain B6C3F1, males, in feed, site: any site (literature study), lesion: several types, types named in the paper, dosed 103 weeks, study length 104 weeks): negative (inactive)
- TD50 (mouse, strain B6C3F1, males, in feed, site: liver, lesion: hepatocellular adenoma + hepatocellular carcinoma + neoplastic nodule, dosed 103 weeks, study length 104 weeks): 6910 mg/kg/day
- TD50 (mouse, strain B6C3F1, males, in feed, site: lung, lesion: alveolar/bronchiolar adenoma + alveolar/bronchiolar carcinoma, dosed 103 weeks, study length 104 weeks): 49500 mg/kg/day
- carcinogen call (rat, strain Fischer 344, females, in feed, site: any site (literature study), lesion: several types, types named in the paper, dosed 103 weeks, study length 106 weeks): negative (inactive)
- TD50 (rat, strain Fischer 344, males, in feed, site: any site (literature study), lesion: several types, types named in the paper, dosed 103 weeks, study length 105 weeks): 135 mg/kg/day (inactive)
- TD50 (rat, strain Fischer 344, males, in feed, site: liver, lesion: hepatocellular adenoma + hepatocellular carcinoma + neoplastic nodule, dosed 103 weeks, study length 105 weeks): 26300 mg/kg/day

Structure (SMILES): O=P(O)(O)O
- TD50 (mouse, strain B6C3F1, females, by gavage, site: any site (literature study), lesion: several types, types named in the paper, dosed 103 weeks, study length 105 weeks): 958 mg/kg/day
- TD50 (mouse, strain B6C3F1, females, by gavage, site: liver, lesion: hepatocellular adenoma + hepatocellular carcinoma + neoplastic nodule, dosed 103 weeks, study length 105 weeks): 3710 mg/kg/day
- TD50 (mouse, strain B6C3F1, females, by gavage, site: subcutaneous tissue, lesion: sarcoma, NOS, dosed 103 weeks, study length 105 weeks): 1490 mg/kg/day (inactive)
- TD50 (mouse, strain B6C3F1, males, by gavage, site: adrenal gland, lesion: cortical adenoma, dosed 103 weeks, study length 104 weeks): 5840 mg/kg/day (inactive)
- TD50 (mouse, strain B6C3F1, males, by gavage, site: any site (literature study), lesion: several types, types named in the paper, dosed 103 weeks, study length 104 weeks): 11600 mg/kg/day
- TD50 (mouse, strain B6C3F1, males, by gavage, site: liver, lesion: hepatocellular adenoma + hepatocellular carcinoma + neoplastic nodule, dosed 103 weeks, study length 104 weeks): 2950 mg/kg/day
- TD50 (mouse, strain B6C3F1, males, by gavage, site: lung, lesion: alveolar/bronchiolar adenoma + alveolar/bronchiolar carcinoma, dosed 103 weeks, study length 104 weeks): 19900 mg/kg/day
- TD50 (mouse, strain B6C3F1, males, by gavage, site: multiple organs, lesion: malignant lymphoma, lymphocytic type, dosed 103 weeks, study length 104 weeks): 8420 mg/kg/day

Structure (SMILES): O=S(=O)([O-])[O-].[Cd+2]
- carcinogen call (hamster, strain Syrian Golden, females, inhaled, site: lung, lesion: one or several types, types not named, dosed 61 weeks, study length 76 weeks): negative (inactive)
- carcinogen call (hamster, strain Syrian Golden, females, inhaled, site: lung, lesion: one or several types, types not named, dosed 64 weeks, study length 77 weeks): negative (inactive)
- carcinogen call (hamster, strain Syrian Golden, males, inhaled, site: lung, lesion: one or several types, types not named, dosed 61 weeks, study length 103 weeks): negative (inactive)
- carcinogen call (hamster, strain Syrian Golden, males, inhaled, site: lung, lesion: one or several types, types not named, dosed 64 weeks, study length 113 weeks): negative (inactive)
- TD50 (mouse, strain NMRI, females, inhaled, site: lung, lesion: adenocarcinoma, dosed 42 weeks, study length 96 weeks): 0.829 mg/kg/day (inactive)
- carcinogen call (mouse, strain NMRI, females, inhaled, site: lung, lesion: adenocarcinoma, dosed 69 weeks, study length 94 weeks): negative (inactive)
- carcinogen call (mouse, strain NMRI, females, inhaled, site: lung, lesion: adenoma, dosed 42 weeks, study length 96 weeks): negative (inactive)
- carcinogen call (mouse, strain NMRI, females, inhaled, site: lung, lesion: adenoma, dosed 69 weeks, study length 94 weeks): negative (inactive)
- carcinogen call (mouse, strain NMRI, females, inhaled, site: lung, lesion: several types, types named in the paper, dosed 42 weeks, study length 96 weeks): negative (inactive)
- carcinogen call (mouse, strain NMRI, females, inhaled, site: lung, lesion: several types, types named in the paper, dosed 69 weeks, study length 94 weeks): negative (inactive)
- TD50 (rat, strain Wistar, females, inhaled, site: lung, lesion: adenocarcinoma, dosed 78 weeks, study length 126 weeks): 0.112 mg/kg/day
- TD50 (rat, strain Wistar, females, inhaled, site: lung, lesion: adenosquamous carcinoma, dosed 78 weeks, study length 126 weeks): 0.112 mg/kg/day
- TD50 (rat, strain Wistar, females, inhaled, site: lung, lesion: alveolar/bronchiolar adenoma, dosed 78 weeks, study length 126 weeks): 0.18 mg/kg/day
- TD50 (rat, strain Wistar, females, inhaled, site: lung, lesion: several types, types named in the paper, dosed 78 weeks, study length 126 weeks): 0.0174 mg/kg/day
- TD50 (rat, strain Wistar, females, inhaled, site: lung, lesion: squamous-cell tumor, dosed 78 weeks, study length 126 weeks): 0.381 mg/kg/day
- TD50 (rat, strain Wistar, males, inhaled, site: lung, lesion: adenocarcinoma, dosed 60 weeks, study length 134 weeks): 0.0537 mg/kg/day
- TD50 (rat, strain Wistar, males, inhaled, site: lung, lesion: adenosquamous carcinoma, dosed 60 weeks, study length 134 weeks): 0.219 mg/kg/day
- TD50 (rat, strain Wistar, males, inhaled, site: lung, lesion: alveolar/bronchiolar adenoma, dosed 60 weeks, study length 134 weeks): 0.219 mg/kg/day
- TD50 (rat, strain Wistar, males, inhaled, site: lung, lesion: several types, types named in the paper, dosed 60 weeks, study length 134 weeks): 0.0289 mg/kg/day

Structure (SMILES): Nc1ccc(NC(=O)c2ccc(N)cc2)cc1
- carcinogen call (mouse, strain BALB/cLacDp, females, in feed, site: liver, lesion: several types, types named in the paper, dosed 60 weeks, study length 132 weeks): negative (inactive)
- TD50 (mouse, strain BALB/cLacDp, females, in feed, site: lung, lesion: several types, types named in the paper, dosed 60 weeks, study length 132 weeks): 360 mg/kg/day (inactive)
- carcinogen call (mouse, strain BALB/cLacDp, males, in feed, site: liver, lesion: several types, types named in the paper, dosed 60 weeks, study length 132 weeks): negative (inactive)
- carcinogen call (mouse, strain BALB/cLacDp, males, in feed, site: lung, lesion: several types, types named in the paper, dosed 60 weeks, study length 132 weeks): negative (inactive)

Structure (SMILES): O=NN1CN2CN(C1)CN(N=O)C2
- carcinogen call (rat, strain CB, males, i.p., site: liver, lesion: hepatoma, dosed 26 weeks, study length 100 weeks): negative (inactive)
